Results on 1 molecule are retold here after patent US9566247B2, “Nanoparticles for controlled release of anti-biofilm agents and methods of use” (priority 2013, dated 2017).

Molecules are shown by their SMILES.

For experiment [1], the system named is Biofilms of S. mutans UA159. The experiment in a line: Antibiofilm activity, CFU per dry weight of biofilms on sHA discs. The settings on record: equivalent dose of free farnesol (15% EtOH) or free NPC. Format: cell-based, Streptococcus mutans. The procedure: Biofilms of S. mutans UA159 were formed on saliva coated hydroxyapatite (sHA) surfaces (12.7 mm in diameter, 1 mm in thickness, Clarkson Chromatography Products Inc., South Williamsport, Pa.) as detailed elsewhere (Koo et al., 2010, J Bacteriol, 192(12):3024-32). The HA discs were placed vertically using a custom-made holder and grown in UFTYE (pH 7.0) with 1% sucrose at 37° C. and 5% CO2. Disks were pretreated with the above-described solutions for 10 min, washed twice with sterile saline, and transferred back to culture media. The first treatment was applied directly after salivary pellicle formation (sHA) then treated disks were transferred to culture media containing S. mutans (10^5 CFU/ml). Biofilms were allowed to form on the discs without interruption for 6 hours at which point a second treatment was applied. The next day, biofilms were treated every 6 hours for a total of 3 treatments and the culture media was changed twice. After 48 hours, the amount of colony forming units (CFU) per dry-weight of biofilms was assessed. Briefly, the biofilms were removed and homogenized, then plated onto blood agar plates, and after incubation at 37° C., 5% CO2, the CFUs were counted as described previously (Koo et al., 2003, J Antimicrob Chemother, 52(5):782-9).

For experiment [2], the system named is Streptococcus mutants (S. mutans). Conditions: cited from earlier work.

As a reminder, the MIC is the lowest concentration found to suppress growth.

On to `CC(C)=CCCC(C)=CCCC(C)=CCO` [farnesol], for which, in experiment [1], the “effect on CFU relative to PBS” value is “no effect on CFU”. Moreover, the MIC in experiment [2] is less than 28 µg/mL.
